# Assay results: patent publication US12084472B2 (Ardelyx, Inc., priority 2015, dated 2024)
# Target: T1, human TGR5 (Homo sapiens, UniProt Q8TDU6)
# T1 construct: expressed in transfected cells; host or cells: HEK293
# T1 sequence (Q8TDU6 1-330): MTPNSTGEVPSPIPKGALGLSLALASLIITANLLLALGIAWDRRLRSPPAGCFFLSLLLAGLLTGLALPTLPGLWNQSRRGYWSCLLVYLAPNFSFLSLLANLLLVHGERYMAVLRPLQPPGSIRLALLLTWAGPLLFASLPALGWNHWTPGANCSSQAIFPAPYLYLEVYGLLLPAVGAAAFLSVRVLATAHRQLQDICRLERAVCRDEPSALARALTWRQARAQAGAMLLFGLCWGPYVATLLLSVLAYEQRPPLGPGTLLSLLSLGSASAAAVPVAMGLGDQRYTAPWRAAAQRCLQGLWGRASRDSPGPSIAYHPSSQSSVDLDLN
# Assay: Cell-based TGR5 assay (cAMP generation, HTRF)
# Settings: HEK293 cells stably transfected with human TGR5; cAMP by HTRF; 30 minutes at 37° C.; read-out: pEC50 Human TGR5 (converted)
# Summary of the method: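 First, compounds in 3-fold serial dilution were placed in HBSS with 10 mM HEPES pH 7.4 and 0.5 mM IBMX. Next, human TGR5-expressing HEK293 cells were added and incubated 30 min at 37° C. Finally, cAMP was detected by HTRF and pEC50 derived by logistic fitting.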
row,SMILES,EC50 [nM]
1,"O=C(CCCCNS(=O)(=O)c1ccc(Cl)c(COC2(c3cnccc3-c3ccccc3OC3CC3)CC2)c1)NC[C@H](O)[C@@H](O)[C@H](O)[C@H](O)CO [Compound I-433, 5-[4-chloro-3-({1-[4-(2-cyclopropoxyphenyl)pyridin-3-yl]cyclopropoxy}methyl)benzenesulfonamido]-N-[(2S,3R,4R,5R)-2,3,4,5,6-pentahydroxyhexyl]pentanamide]",< 100
2,"CN(CCC(=O)NC[C@H](O)[C@@H](O)[C@H](O)[C@H](O)CO)S(=O)(=O)c1ccc(Cl)c(COC2(c3cnccc3-c3ccccc3OC3CC3)CC2)c1 [Compound I-434, 3-[N-methyl4-chloro-3-({1-[4-(2-cyclopropoxyphenyl)pyridin-3-yl]cyclopropoxy}methyl)benzenesulfonamido]-N-[(2S,3R,4R,5R)-2,3,4,5,6-pentahydroxyhexyl]propanamide]",< 100
3,"O=C(NC[C@H](O)[C@@H](O)[C@H](O)[C@H](O)CO)[C@H]1[C@@H]2CN(S(=O)(=O)c3ccc(Cl)c(COC4(c5cnccc5-c5ccccc5OC5CC5)CC4)c3)C[C@@H]21 [Compound I-435, (1R,5S,6S)-3-[4-chloro-3-({1-[4-(2-cyclopropoxyphenyl)pyridin-3-yl]cyclopropoxy}methyl)benzenesulfonyl]-N-[(2S,3R,4R,5R)-2,3,4,5,6-pentahydroxyhexyl]-3-azabicyclo[3.1.0]hexane-6-carboxamide]",< 100
4,"O=C(NC[C@H](O)[C@@H](O)[C@H](O)[C@H](O)CO)[C@H]1CC[C@H](CNS(=O)(=O)c2ccc(Cl)c(COC3(c4cnccc4-c4ccccc4OC4CC4)CC3)c2)CC1 [Compound I-436, (1r,4r)-4-[4-chloro-3-({1-[4-(2-cyclopropoxyphenyl)pyridin-3-yl]cyclopropoxy}methyl)benzenesulfonamidomethyl]-N-[(2S,3R,4R,5R)-2,3,4,5,6-pentahydroxyhexyl]cyclohexane-1-carboxamide]",< 100
5,"O=C(NC[C@H](O)[C@@H](O)[C@H](O)[C@H](O)CO)C1CCN(S(=O)(=O)c2ccc(Cl)c(COC3(c4cnccc4-c4ccccc4OC4CC4)CC3)c2)CC1 [Compound I-437, 1-[4-chloro-3-({1-[4-(2-cyclopropoxyphenyl)pyridin-3-yl]cyclopropoxy}methyl)benzenesulfonyl]-N-[(2S,3R,4R,5R)-2,3,4,5,6-pentahydroxyhexyl]piperidine-4-carboxamide]",< 100
6,"O=C(CC1CN(S(=O)(=O)c2ccc(Cl)c(COC3(c4cnccc4-c4ccccc4OC4CC4)CC3)c2)C1)NC[C@H](O)[C@@H](O)[C@H](O)[C@H](O)CO [Compound I-438, 2-{1-[4-chloro-3-({1-[4-(2-cyclopropoxyphenyl)pyridin-3-yl]cyclopropoxy}methyl)benzenesulfonyl]azetidin-3-yl}-N-[(2S,3R,4R,5R)-2,3,4,5,6-pentahydroxyhexyl]acetamide]",< 100
7,"O=C(NC[C@H](O)[C@@H](O)[C@H](O)[C@H](O)CO)C1CCC(NS(=O)(=O)c2ccc(Cl)c(COC3(c4cnccc4-c4ccccc4OC4CC4)CC3)c2)C1 (stereo partly drawn) [Compound I-439, 3-[4-chloro-3-({1-[4-(2-cyclopropoxyphenyl)pyridin-3-yl]cyclopropoxy}methyl)benzenesulfonamido]-N-[(2S,3R,4R,5R)-2,3,4,5,6-pentahydroxyhexyl]cyclopentane-1-carboxamide]",< 100
8,"O=C(CN1CCN(S(=O)(=O)c2ccc(Cl)c(COC3(c4cnccc4-c4ccccc4OC4CC4)CC3)c2)CC1)NC[C@H](O)[C@@H](O)[C@H](O)[C@H](O)CO [Compound I-440, 2-{4-[4-chloro-3-({1-[4-(2-cyclopropoxyphenyl)pyridin-3-yl]cyclopropoxy}methyl)benzenesulfonyl]piperazin-1-yl}-N-[(2S,3R,4R,5R)-2,3,4,5,6-pentahydroxyhexyl]acetamide]",126 to 1000
9,"O=C(CC1CCN(S(=O)(=O)c2ccc(Cl)c(COC3(c4cnccc4-c4ccccc4OC4CC4)CC3)c2)CC1)NC[C@H](O)[C@@H](O)[C@H](O)[C@H](O)CO [Compound I-441, 2-{1-[4-chloro-3-({1-[4-(2-cyclopropoxyphenyl)pyridin-3-yl]cyclopropoxy}methyl)benzenesulfonyl]piperidin-4-yl}-N-[(2S,3R,4R,5R)-2,3,4,5,6-pentahydroxyhexyl]acetamide]",126 to 1000
10,"O=C(NC[C@H](O)[C@@H](O)[C@H](O)[C@H](O)CO)[C@H]1CC[C@H](NS(=O)(=O)c2ccc(Cl)c(COC3(c4cnccc4-c4ccccc4OC4CC4)CC3)c2)CC1 [Compound I-442, (1r,4r)-4-[4-chloro-3-({1-[4-(2-cyclopropoxyphenyl)pyridin-3-yl]cyclopropoxy}methyl)benzenesulfonamido]-N-[(2S,3R,4R,5R)-2,3,4,5,6-pentahydroxyhexyl]cyclohexane-1-carboxamide]",< 100
11,"O=C(CCN1CCN(S(=O)(=O)c2ccc(Cl)c(COC3(c4cnccc4-c4ccccc4OC4CC4)CC3)c2)CC1)NC[C@H](O)[C@@H](O)[C@H](O)[C@H](O)CO [Compound I-443, 3-{4-[4-chloro-3-({1-[4-(2-cyclopropoxyphenyl)pyridin-3-yl]cyclopropoxy}methyl)benzenesulfonyl]piperazin-1-yl}-N-[(2S,3R,4R,5R)-2,3,4,5,6-pentahydroxyhexyl]propanamide]",126 to 1000
12,"O=C(COC1CCN(S(=O)(=O)c2ccc(Cl)c(COC3(c4cnccc4-c4ccccc4OC4CC4)CC3)c2)CC1)NC[C@H](O)[C@@H](O)[C@H](O)[C@H](O)CO [Compound I-444, 2-({1-[4-chloro-3-({1-[4-(2-cyclopropoxyphenyl)pyridin-3-yl]cyclopropoxy}methyl)benzenesulfonyl]piperidin-4-yl}oxy)-N-[(2S,3R,4R,5R)-2,3,4,5,6-pentahydroxyhexyl]acetamide]",< 100
13,"O=C(NC[C@H](O)[C@@H](O)[C@H](O)[C@H](O)CO)C12CCC(NS(=O)(=O)c3ccc(Cl)c(COC4(c5cnccc5-c5ccccc5OC5CC5)CC4)c3)(CC1)CC2 [Compound I-445, 4-[4-chloro-3-({1-[4-(2-cyclopropoxyphenyl)pyridin-3-yl]cyclopropoxy}methyl)benzenesulfonamido]-N-[(2S,3R,4R,5R)-2,3,4,5,6-pentahydroxyhexyl]bicyclo[2.2.2]octane-1-carboxamide]",126 to 1000
14,"O=C(/C=C/C1CN(S(=O)(=O)c2ccc(Cl)c(COC3(c4cnccc4-c4ccccc4OC4CC4)CC3)c2)C1)NC[C@H](O)[C@@H](O)[C@H](O)[C@H](O)CO [Compound I-446, (2E)-3-{1-[4-chloro-3-({1-[4-(2-cyclopropoxyphenyl)pyridin-3-yl]cyclopropoxy}methyl)benzenesulfonyl]azetidin-3-yl}-N-[(2S,3R,4R,5R)-2,3,4,5,6-pentahydroxyhexyl]prop-2-enamide]",< 100

# The next lines start with the values.
row,EC50 [nM],SMILES
1,< 100,"CN(C[C@H](O)[C@@H](O)[C@H](O)[C@H](O)CO)C(=O)CC1CN(S(=O)(=O)c2ccc(Cl)c(COC3(c4cnccc4-c4ccccc4OC4CC4)CC3)c2)C1 [Compound I-447, 2-{1-[4-chloro-3-({1-[4-(2-cyclopropoxyphenyl)pyridin-3-yl]cyclopropoxy}methyl)benzenesulfonyl]azetidin-3-yl}-N-methyl-N-[(2S,3R,4R,5R)-2,3,4,5,6-pentahydroxyhexyl]acetamide]"
2,< 100,"O=C(CCC1CN(S(=O)(=O)c2ccc(Cl)c(COC3(c4cnccc4-c4ccccc4OC4CC4)CC3)c2)C1)NC[C@H](O)[C@@H](O)[C@H](O)[C@H](O)CO [Compound I-448, 3-{1-[4-chloro-3-({1-[4-(2-cyclopropoxyphenyl)pyridin-3-yl]cyclopropoxy}methyl)benzenesulfonyl]azetidin-3-yl}-N-[(2S,3R,4R,5R)-2,3,4,5,6-pentahydroxyhexyl]propanamide]"
3,< 100,"O=C(CCC1CCN(S(=O)(=O)c2ccc(Cl)c(COC3(c4cnccc4-c4ccccc4OC4CC4)CC3)c2)CC1)NC[C@H](O)[C@@H](O)[C@H](O)[C@H](O)CO [Compound I-449, 3-{1-[4-chloro-3-({1-[4-(2-cyclopropoxyphenyl)pyridin-3-yl]cyclopropoxy}methyl)benzenesulfonyl]piperidin-4-yl}-N-[(2S,3R,4R,5R)-2,3,4,5,6-pentahydroxyhexyl]propanamide]"
4,< 100,"O=C(/C=C/C1CCN(S(=O)(=O)c2ccc(Cl)c(COC3(c4cnccc4-c4ccccc4OC4CC4)CC3)c2)C1)NC[C@H](O)[C@@H](O)[C@H](O)[C@H](O)CO (stereo partly drawn) [Compound I-450, (2E)-3-{1-[4-chloro-3-({1-[4-(2-cyclopropoxyphenyl)pyridin-3-yl]cyclopropoxy}methyl)benzenesulfonyl]pyrrolidin-3-yl}-N-[(2S,3R,4R,5R)-2,3,4,5,6-pentahydroxyhexyl]prop-2-enamide]"
5,< 100,"O=C(CCC1CCN(S(=O)(=O)c2ccc(Cl)c(COC3(c4cnccc4-c4ccccc4OC4CC4)CC3)c2)C1)NC[C@H](O)[C@@H](O)[C@H](O)[C@H](O)CO (stereo partly drawn) [Compound I-451, 3-{1-[4-chloro-3-({-[4-(2-cyclopropoxyphenyl)pyridin-3-yl]cyclopropoxy}methyl)benzenesulfonyl]pyrrolidin-3-yl}-N-[(2S,3R,4R,5R)-2,3,4,5,6-pentahydroxyhexyl]propanamide]"
6,< 100,"O=C(/C=C/CC1CN(S(=O)(=O)c2ccc(Cl)c(COC3(c4cnccc4-c4ccccc4OC4CC4)CC3)c2)C1)NC[C@H](O)[C@@H](O)[C@H](O)[C@H](O)CO [Compound I-452, (2E)-4-{1-[4-chloro-3-({1-[4-(2-cyclopropoxyphenyl)pyridin-3-yl]cyclopropoxy}methyl)benzenesulfonyl]azetidin-3-yl}-N-[(2S,3R,4R,5R)-2,3,4,5,6-pentahydroxyhexyl]but-2-enamide]"
